Several values for one entry are separate records, joined by “and”; a condition that tells them apart may be missing. Identical values can stand only once. Inconclusive results and toxic doses are left out. The calls were made as follows: active = survival T/C of 150% or more; inactive = T/C below 125% in these data.
Test system: P388 leukemia ip, CD2F1 mice, survival T/C
Assay: NCI In Vivo Anticancer Drug Screen. Data for tumor model P388 Leukemia (intraperitoneal) in CD2F1 (CDF1) mice
Settings: endpoint: median survival time, higher = longer survival
Procedure, shortened: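 Mice carrying the transplanted tumor received test compound or vehicle. Survival was recorded in each group, and the value is the treated-group measurement divided by that of the vehicle-treated control group.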

[1] = dose: 50.0 mg/kg/injection, schedule: Q01DX009 (ip), vehicle: Klucel (hydroxypropylcellulose) (HPC)
[2] = dose: 100.0 mg/kg/injection, schedule: Q01DX009 (ip), vehicle: Klucel (hydroxypropylcellulose) (HPC)
[3] = dose: 200.0 mg/kg/injection, schedule: Q01DX009 (ip), vehicle: Klucel (hydroxypropylcellulose) (HPC)
[4] = dose: 50.0 mg/kg/injection, schedule: Q01DX005 (ip), vehicle: saline with Tween-80
[5] = dose: 100.0 mg/kg/injection, schedule: Q01DX005 (ip), vehicle: saline with Tween-80
[6] = dose: 200.0 mg/kg/injection, schedule: Q01DX005 (ip), vehicle: saline with Tween-80
[7] = dose: 60.0 mg/kg/injection, schedule: Q01DX005 (ip), vehicle: Klucel (hydroxypropylcellulose) (HPC)
[8] = dose: 120.0 mg/kg/injection, schedule: Q01DX005 (ip), vehicle: Klucel (hydroxypropylcellulose) (HPC)
[9] = dose: 240.0 mg/kg/injection, schedule: Q01DX005 (ip), vehicle: Klucel (hydroxypropylcellulose) (HPC)
[10] = dose: 25.0 mg/kg/injection, schedule: Q01DX005 (ip), vehicle: saline with Tween-80

Measured: T/C

Cc1c(C(=O)O)c(O)cc2c1C(=O)c1c(O)c(C3OC(CO)C(O)C(O)C3O)c(O)c(O)c1C2=O (centres undefined)
inactive: dose: 0.12 mg/kg/injection, schedule: Q01DX009 (ip), vehicle: saline 108 % of control | dose: 0.25 mg/kg/injection, schedule: Q01DX009 (ip), vehicle: saline 104 % of control | dose: 0.5 mg/kg/injection, schedule: Q01DX009 (ip), vehicle: saline 110 % of control | dose: 1.0 mg/kg/injection, schedule: Q01DX009 (ip), vehicle: saline 103 % of control | dose: 2.0 mg/kg/injection, schedule: Q01DX009 (ip), vehicle: saline 101 % of control

CCN(CC)Cc1cc(N=Nc2ccc([N+](=O)[O-])c(OC)c2)c2ccccc2c1O
inactive: [1] 99 % of control | [2] 95 % of control | [3] 97 % of control

Cc1[nH]nc2c(C/C=C/c3ccccc3)n[nH]c(=O)c12
inactive: [1] 98 % of control | [2] 100 % of control | [3] 101 % of control

CC(=O)CC1C(=O)OC(C)(C)OC1=O
inactive: [4] 112 % of control | [5] 106 % of control | [6] 103 % of control

CC1(C)C2CCC(C2)C1OC(=O)c1ccccc1C(=O)O (centres undefined)
inactive: dose: 60.0 mg/kg/injection, schedule: Q01DX005 (ip), vehicle: saline with Tween-80 99 % of control | dose: 120.0 mg/kg/injection, schedule: Q01DX005 (ip), vehicle: saline with Tween-80 98 % of control | dose: 240.0 mg/kg/injection, schedule: Q01DX005 (ip), vehicle: saline with Tween-80 104 % of control

O=C(Nc1cccc2c1C(=O)c1cccc(Nc3ccc(NC(=O)c4ccccc4)c4c3C(=O)c3ccccc3C4=O)c1C2=O)c1ccccc1
inactive: [4] 95 % of control | [5] 89 % of control | [6] 93 % of control

Cc1cn(C2CC(F)C(CO)O2)c(=O)[nH]c1=O (centres undefined)
inactive: dose: 12.5 mg/kg/injection, schedule: Q01DX009 (ip), vehicle: saline 106 % of control | dose: 25.0 mg/kg/injection, schedule: Q01DX009 (ip), vehicle: saline 101 % of control and 103 % of control | dose: 50.0 mg/kg/injection, schedule: Q01DX009 (ip), vehicle: saline 100 % of control and 110 % of control | dose: 100.0 mg/kg/injection, schedule: Q01DX009 (ip), vehicle: saline 101 % of control and 119 % of control | dose: 200.0 mg/kg/injection, schedule: Q01DX009 (ip), vehicle: saline 101 % of control | dose: 400.0 mg/kg/injection, schedule: Q01DX009 (ip), vehicle: saline 116 % of control

Nc1ccc(-c2c3ccccc3nc3cc(N)ccc23)cc1
inactive: dose: 50.0 mg/kg/injection, schedule: Q01DX005 (ip), vehicle: saline 118 % of control | dose: 100.0 mg/kg/injection, schedule: Q01DX005 (ip), vehicle: saline 115 % of control

NC(=O)C(C(N)=O)=C1C(=O)c2ccccc2C1=O
inactive: [7] 95 % of control | [8] 100 % of control | [9] 99 % of control

[O-][n+]1c(CCl)nc2ccccc2c1-c1ccccc1F
inactive: dose: 12.5 mg/kg/injection, schedule: Q01DX009 (ip), vehicle: saline with Tween-80 103 % of control | dose: 25.0 mg/kg/injection, schedule: Q01DX009 (ip), vehicle: saline with Tween-80 103 % of control | dose: 50.0 mg/kg/injection, schedule: Q01DX009 (ip), vehicle: saline with Tween-80 103 % of control

O=C(Nc1ccc(N=C=S)cc1Cl)c1cc(Br)cc(Br)c1O
inactive: dose: 25.0 mg/kg/injection, schedule: Q01DX001 (ip), vehicle: Klucel (hydroxypropylcellulose) (HPC) 106 % of control | dose: 50.0 mg/kg/injection, schedule: Q01DX001 (ip), vehicle: Klucel (hydroxypropylcellulose) (HPC) 100 % of control | dose: 100.0 mg/kg/injection, schedule: Q01DX001 (ip), vehicle: Klucel (hydroxypropylcellulose) (HPC) 92 % of control and 95 % of control

COc1cc2c(cc1[N+](=O)[O-])C(=O)CCCC2
inactive: dose: 100.0 mg/kg/injection, schedule: Q01DX009 (sc), vehicle: olive oil, sesame oil, peanut oil 104 % of control | dose: 200.0 mg/kg/injection, schedule: Q01DX009 (sc), vehicle: olive oil, sesame oil, peanut oil 100 % of control | dose: 400.0 mg/kg/injection, schedule: Q01DX009 (sc), vehicle: olive oil, sesame oil, peanut oil 107 % of control

CCOc1cc2c(cc1C(CC)c1ccc(O)cc1)OCO2 (centres undefined)
inactive: dose: 50.0 mg/kg/injection, schedule: Q01DX005 (ip), vehicle: distilled water + Tween-80 93 % of control | dose: 100.0 mg/kg/injection, schedule: Q01DX005 (ip), vehicle: distilled water + Tween-80 93 % of control | dose: 200.0 mg/kg/injection, schedule: Q01DX005 (ip), vehicle: distilled water + Tween-80 96 % of control

Cc1ccc2c(c1)C(O)(CC(=O)c1ccccn1)C(=O)N2 (centres undefined)
inactive: [7] 104 % of control | [8] 97 % of control | [9] 104 % of control

COc1ccc2ncc(COC(C)=O)c(C)c2c1
inactive: [4] 99 % of control | [5] 99 % of control | [6] 93 % of control

C=CCOc1ccccc1N/N=C(\Cl)C(=O)OC
inactive: dose: 12.5 mg/kg/injection, schedule: Q01DX005 (ip), vehicle: saline with Tween-80 102 % of control | [10] 108 % of control | [4] 109 % of control and 114 % of control

CCCNc1ncc(C(=O)O)c(=O)[nH]1
inactive: dose: 1.56 mg/kg/injection, schedule: Q01DX009 (ip), vehicle: saline with Tween-80 104 % of control | dose: 3.12 mg/kg/injection, schedule: Q01DX009 (ip), vehicle: saline with Tween-80 95 % of control | dose: 6.25 mg/kg/injection, schedule: Q01DX009 (ip), vehicle: saline with Tween-80 95 % of control

CCOC(=O)c1ccccc1N
inactive: [10] 100 % of control | [4] 105 % of control | [5] 99 % of control | [6] 100 % of control

CC(=O)Oc1ccccc1O
inactive: dose: 25.0 mg/kg/injection, schedule: Q01DX009 (ip), vehicle: saline + Tween-80 + alcohol 106 % of control | dose: 50.0 mg/kg/injection, schedule: Q01DX009 (ip), vehicle: saline + Tween-80 + alcohol 101 % of control and 105 % of control and 116 % of control | dose: 100.0 mg/kg/injection, schedule: Q01DX009 (ip), vehicle: saline + Tween-80 + alcohol 109 % of control and 115 % of control

CCCCOc1cccc2c(NCCCCNCCCNc3c4ccccc4nc4c(OCCCC)cccc34)c3ccccc3nc12
inactive: dose: 0.63 mg/kg/injection, schedule: Q01DX009 (ip), vehicle: other 105 % of control | dose: 1.25 mg/kg/injection, schedule: Q01DX009 (ip), vehicle: other 120 % of control | dose: 2.5 mg/kg/injection, schedule: Q01DX009 (ip), vehicle: other 111 % of control | dose: 5.0 mg/kg/injection, schedule: Q01DX009 (ip), vehicle: other 121 % of control

COc1ccc(C(=O)NCc2cccnc2)cc1C(=O)NCc1cccnc1
inactive: [4] 94 % of control | [5] 103 % of control | [6] 99 % of control

Reference: PubChem BioAssay AID330 (DTP/NCI, 2004)
